Data on twelve compounds can be found in ChEMBL document CHEMBL5291721, “A preclinical secondary pharmacology resource illuminates target-adverse drug reaction associations of marketed drugs” (Nat Commun, 2023).

One test concerns the target Bile salt export pump (Homo sapiens, UniProt O95342). Format: functional.
Test [1] addresses T1, Alpha-2A adrenergic receptor (Homo sapiens, UniProt P08913).
T1 sequence (P08913 whole entry): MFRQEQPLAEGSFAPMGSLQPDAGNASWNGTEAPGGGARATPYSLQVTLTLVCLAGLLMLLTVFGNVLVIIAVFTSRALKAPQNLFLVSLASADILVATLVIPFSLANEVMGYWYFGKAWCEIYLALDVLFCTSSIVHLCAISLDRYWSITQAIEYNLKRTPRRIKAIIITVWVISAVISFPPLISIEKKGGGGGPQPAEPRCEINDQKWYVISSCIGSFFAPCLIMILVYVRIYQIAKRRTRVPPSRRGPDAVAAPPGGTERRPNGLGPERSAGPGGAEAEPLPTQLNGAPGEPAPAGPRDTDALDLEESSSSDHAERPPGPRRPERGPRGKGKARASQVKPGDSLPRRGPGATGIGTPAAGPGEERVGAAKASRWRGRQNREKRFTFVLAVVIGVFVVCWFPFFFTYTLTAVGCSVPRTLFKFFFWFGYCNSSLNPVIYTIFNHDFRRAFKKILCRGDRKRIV
Format: functional, cell-based.

In test [2] the target is Growth hormone secretagogue receptor type 1 (Homo sapiens, UniProt Q92847).
The target in test [3] is T2, 5-hydroxytryptamine receptor 1A (Homo sapiens, UniProt P08908).
T2 sequence (P08908 whole entry): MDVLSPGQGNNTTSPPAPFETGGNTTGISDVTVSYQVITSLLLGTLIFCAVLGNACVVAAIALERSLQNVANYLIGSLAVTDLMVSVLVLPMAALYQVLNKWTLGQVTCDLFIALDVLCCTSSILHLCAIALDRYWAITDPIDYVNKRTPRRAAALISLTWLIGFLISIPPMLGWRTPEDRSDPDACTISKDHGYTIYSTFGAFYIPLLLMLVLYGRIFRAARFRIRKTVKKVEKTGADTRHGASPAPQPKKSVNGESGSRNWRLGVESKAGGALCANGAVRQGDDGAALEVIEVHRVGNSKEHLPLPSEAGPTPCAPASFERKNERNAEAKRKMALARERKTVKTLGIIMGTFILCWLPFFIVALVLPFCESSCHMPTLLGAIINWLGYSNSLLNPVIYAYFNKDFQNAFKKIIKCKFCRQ
Format: functional, cell-based.

Test [4] deals with T2, 5-hydroxytryptamine receptor 1A. In kind it is functional, cell-based. The source holds these as a separate data set.
The target in test [5] is T3, Progesterone receptor (Homo sapiens, UniProt P06401).
T3 sequence (P06401 whole entry): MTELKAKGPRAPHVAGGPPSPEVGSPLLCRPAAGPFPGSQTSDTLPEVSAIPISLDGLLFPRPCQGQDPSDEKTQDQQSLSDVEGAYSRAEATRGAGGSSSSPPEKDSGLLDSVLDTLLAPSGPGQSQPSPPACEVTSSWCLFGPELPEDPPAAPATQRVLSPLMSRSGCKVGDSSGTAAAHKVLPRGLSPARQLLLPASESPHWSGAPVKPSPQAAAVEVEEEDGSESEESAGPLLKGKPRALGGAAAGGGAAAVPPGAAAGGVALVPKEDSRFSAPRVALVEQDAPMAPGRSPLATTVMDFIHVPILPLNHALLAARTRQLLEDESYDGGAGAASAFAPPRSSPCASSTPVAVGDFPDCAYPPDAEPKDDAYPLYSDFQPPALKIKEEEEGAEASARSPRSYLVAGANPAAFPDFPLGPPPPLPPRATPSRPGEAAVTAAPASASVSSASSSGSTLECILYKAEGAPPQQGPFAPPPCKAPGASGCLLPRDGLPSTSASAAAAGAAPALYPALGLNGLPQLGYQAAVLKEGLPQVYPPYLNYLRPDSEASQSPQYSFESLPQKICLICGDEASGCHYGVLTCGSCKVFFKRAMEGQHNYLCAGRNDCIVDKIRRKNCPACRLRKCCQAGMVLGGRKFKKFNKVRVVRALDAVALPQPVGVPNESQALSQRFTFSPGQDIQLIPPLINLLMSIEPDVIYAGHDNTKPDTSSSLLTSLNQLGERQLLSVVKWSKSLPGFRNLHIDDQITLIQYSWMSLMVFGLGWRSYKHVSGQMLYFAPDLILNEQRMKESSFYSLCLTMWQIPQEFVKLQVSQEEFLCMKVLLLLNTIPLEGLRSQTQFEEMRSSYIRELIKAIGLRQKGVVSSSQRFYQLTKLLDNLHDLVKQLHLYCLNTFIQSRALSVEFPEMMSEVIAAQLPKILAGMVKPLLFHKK
In kind it is functional.

Test [6] deals with Sodium-dependent dopamine transporter (Homo sapiens, UniProt Q01959).
Test [7] addresses T3, Progesterone receptor. Format: functional. The source holds these as a separate data set.
Also: assay procedure not described here.

Chain of Growth hormone secretagogue receptor type 1 (Q92847 whole entry): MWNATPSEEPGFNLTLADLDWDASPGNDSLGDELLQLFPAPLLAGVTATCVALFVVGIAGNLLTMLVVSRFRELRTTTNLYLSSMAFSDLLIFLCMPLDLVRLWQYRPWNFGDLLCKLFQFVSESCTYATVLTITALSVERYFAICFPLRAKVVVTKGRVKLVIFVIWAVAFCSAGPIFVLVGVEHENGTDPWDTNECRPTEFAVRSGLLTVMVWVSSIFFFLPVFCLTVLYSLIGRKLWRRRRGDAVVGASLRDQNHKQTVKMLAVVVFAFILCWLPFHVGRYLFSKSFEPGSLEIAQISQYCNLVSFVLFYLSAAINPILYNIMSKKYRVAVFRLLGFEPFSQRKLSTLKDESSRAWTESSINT
Chain of Bile salt export pump (O95342 whole entry): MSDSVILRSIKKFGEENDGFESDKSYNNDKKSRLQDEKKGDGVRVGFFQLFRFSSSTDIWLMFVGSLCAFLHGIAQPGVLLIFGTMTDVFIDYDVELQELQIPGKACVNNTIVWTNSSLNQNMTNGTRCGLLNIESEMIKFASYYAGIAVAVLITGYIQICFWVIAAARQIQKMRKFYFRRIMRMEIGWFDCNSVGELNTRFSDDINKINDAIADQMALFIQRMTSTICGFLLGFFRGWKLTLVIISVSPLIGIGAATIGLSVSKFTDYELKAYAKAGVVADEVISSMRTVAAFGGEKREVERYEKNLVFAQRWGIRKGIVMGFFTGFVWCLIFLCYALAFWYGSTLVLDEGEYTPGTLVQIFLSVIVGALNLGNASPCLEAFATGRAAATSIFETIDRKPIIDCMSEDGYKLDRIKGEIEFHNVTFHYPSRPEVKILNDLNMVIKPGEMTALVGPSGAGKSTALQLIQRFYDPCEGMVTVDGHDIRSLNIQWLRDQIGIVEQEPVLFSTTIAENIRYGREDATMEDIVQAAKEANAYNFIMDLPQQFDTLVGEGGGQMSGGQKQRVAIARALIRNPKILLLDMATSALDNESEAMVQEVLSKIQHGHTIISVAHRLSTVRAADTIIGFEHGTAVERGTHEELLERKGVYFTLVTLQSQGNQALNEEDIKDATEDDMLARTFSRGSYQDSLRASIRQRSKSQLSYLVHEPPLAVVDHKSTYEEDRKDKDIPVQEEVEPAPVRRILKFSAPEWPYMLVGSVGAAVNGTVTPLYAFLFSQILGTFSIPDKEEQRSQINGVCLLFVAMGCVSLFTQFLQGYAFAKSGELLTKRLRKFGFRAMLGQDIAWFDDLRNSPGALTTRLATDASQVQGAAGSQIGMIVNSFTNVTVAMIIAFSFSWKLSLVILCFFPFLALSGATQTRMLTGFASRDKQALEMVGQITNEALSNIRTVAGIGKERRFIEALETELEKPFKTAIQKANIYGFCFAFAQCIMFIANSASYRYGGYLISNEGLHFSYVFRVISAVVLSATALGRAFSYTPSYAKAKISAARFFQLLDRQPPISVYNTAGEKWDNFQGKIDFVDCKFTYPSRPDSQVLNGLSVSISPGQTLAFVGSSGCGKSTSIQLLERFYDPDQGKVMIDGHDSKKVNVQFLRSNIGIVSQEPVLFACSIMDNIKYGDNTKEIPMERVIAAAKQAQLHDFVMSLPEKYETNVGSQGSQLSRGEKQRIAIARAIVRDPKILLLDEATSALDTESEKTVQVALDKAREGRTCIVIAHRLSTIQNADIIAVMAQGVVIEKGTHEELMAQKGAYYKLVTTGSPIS
Chain of Sodium-dependent dopamine transporter (Q01959 whole entry): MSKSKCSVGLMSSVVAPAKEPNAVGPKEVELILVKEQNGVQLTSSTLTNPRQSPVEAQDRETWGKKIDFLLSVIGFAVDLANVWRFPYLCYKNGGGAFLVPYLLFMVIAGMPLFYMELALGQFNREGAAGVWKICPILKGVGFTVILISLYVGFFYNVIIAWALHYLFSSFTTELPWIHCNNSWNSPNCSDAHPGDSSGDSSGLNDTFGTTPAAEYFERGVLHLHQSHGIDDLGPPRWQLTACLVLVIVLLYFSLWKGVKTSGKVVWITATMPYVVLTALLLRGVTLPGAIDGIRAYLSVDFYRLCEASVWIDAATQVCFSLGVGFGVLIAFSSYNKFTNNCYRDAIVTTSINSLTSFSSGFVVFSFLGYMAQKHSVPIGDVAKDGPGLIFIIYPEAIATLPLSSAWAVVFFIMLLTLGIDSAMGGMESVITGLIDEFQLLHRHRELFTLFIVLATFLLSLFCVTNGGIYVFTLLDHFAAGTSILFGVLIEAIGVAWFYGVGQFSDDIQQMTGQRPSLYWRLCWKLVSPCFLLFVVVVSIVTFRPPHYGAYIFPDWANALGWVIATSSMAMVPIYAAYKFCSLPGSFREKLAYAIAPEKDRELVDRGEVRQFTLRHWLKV

For the compound `CC(C)(O/N=C(\C(=O)N[C@@H]1C(=O)N2C(C(=O)[O-])=C(C[n+]3ccccc3)CS[C@H]12)c1csc(N)n1)C(=O)O` [CEFTAZIDIME], the AC50 (at Bile salt export pump; in test [1]; in test [2]; in test [3]; in test [4]; on Progesterone receptor [5]) was above 300 µM in each case. This compound also came in with a concentration at half-maximal activity (AC50) in test [6] above 300 µM.
Consider `CCCNC(=O)NS(=O)(=O)c1ccc(Cl)cc1` [CHLORPROPAMIDE], for which the AC50 was above 300 µM on Bile salt export pump; above 10 µM in test [1]; above 30 µM in test [2]; above 10 µM in test [3]; above 10 µM in test [4]; above 30 µM in test [6].
Turning to `Clc1ccc(Cn2c(CN3CCCC3)nc3ccccc32)cc1` [CLEMIZOLE], the AC50 is 29 µM at Bile salt export pump; above 10 µM in test [1]; above 30 µM in test [2]; above 30 µM in test [3]; above 30 µM in test [4]; 24 µM in test [6].
On to `CNC[C@H](O)c1ccc(O)c(O)c1` [EPINEPHRINE], for which the AC50 on Bile salt export pump is above 300 µM; in test [2] it was above 30 µM; on Progesterone receptor [5], above 30 µM; on Progesterone receptor [7] it was above 30 µM; in test [6], above 30 µM.
For `CCCCCCCN(CC)CCCC(O)c1ccc(NS(C)(=O)=O)cc1` (centres undefined) [IBUTILIDE], the AC50 on Bile salt export pump was above 300 µM; in test [1], above 30 µM; in test [2] it was above 30 µM; in test [3], above 30 µM; at Progesterone receptor [5] it was above 30 µM; on Progesterone receptor [7], above 30 µM. Besides, the AC50 in test [6] was above 30 µM.
`CC[C@H](C)C(=O)O[C@H]1C[C@@H](C)C=C2C=C[C@H](C)[C@H](CC[C@@H]3C[C@@H](O)CC(=O)O3)[C@H]21` [LOVASTATIN]: the AC50 at Bile salt export pump is 27 µM; in test [1] it was above 10 µM; in test [2], above 30 µM; in test [3], above 10 µM; in test [4], above 10 µM; in test [6], above 10 µM.
Take `CN1Cc2c(N)cccc2C(c2ccccc2)C1` (centres undefined) [NOMIFENSINE]: the AC50 on Bile salt export pump was above 300 µM; in test [1] it was above 30 µM; in test [2], above 30 µM; in test [3] it was above 30 µM; at Progesterone receptor [5], above 30 µM; on Progesterone receptor [7], above 30 µM.
As to `CC(CN1c2ccccc2Sc2ccccc21)N(C)C` (centres undefined) [PROMETHAZINE], the AC50 on Bile salt export pump was above 300 µM; in test [2], above 30 µM; in test [3], above 10 µM; in test [4], above 10 µM; in test [6] it was above 10 µM.
Regarding `Cn1cc(C(=O)[C@@H]2CCc3nc[nH]c3C2)c2ccccc21` [RAMOSETRON], the AC50 was above 300 µM on Bile salt export pump; above 30 µM in test [1]; above 30 µM in test [2]; above 30 µM in test [3]; above 30 µM at Progesterone receptor [5]; above 30 µM at Progesterone receptor [7]. Moreover, in test [6], the AC50 was above 30 µM.
Regarding `CN(CCOc1ccc(CC2SC(=O)NC2=O)cc1)c1ccccn1` (centres undefined) [ROSIGLITAZONE], the AC50 at Bile salt export pump was 1 µM; in test [1], above 30 µM; in test [2] it was above 30 µM; in test [3] it was above 30 µM; on Progesterone receptor [5] it was above 30 µM; at Progesterone receptor [7] it was above 30 µM. Moreover, the AC50 in test [6] is above 30 µM.
On to `CC(C)[C@H](N)C(=O)OCCOCn1cnc2c(=O)[nH]c(N)nc21` [VALACYCLOVIR], for which the AC50 at Bile salt export pump was above 300 µM; in test [1] it was above 10 µM; in test [2], above 30 µM; in test [3], above 10 µM; in test [4], above 10 µM; in test [6], above 10 µM.
With `COc1cc(C(=O)NS(=O)(=O)c2ccccc2C)ccc1Cc1cn(C)c2ccc(NC(=O)OC3CCCC3)cc12` [ZAFIRLUKAST], the AC50 on Bile salt export pump is 2.28 µM; in test [2], above 10 µM; in test [3] it was above 10 µM; at Progesterone receptor [5], above 30 µM; at Progesterone receptor [7], 11.2 µM; in test [6] it was above 10 µM.

What is called AC50 is the concentration giving half of the maximal activity seen.
